Here are results for 25 compounds from the NIST ThermoML archive (doi:10.1016/j.jct.2018.02.014).

Numbers after ± are expanded uncertainties.

The nature of this series: activity coefficient (dimensionless); of the first substance listed, at infinite dilution; xn = mol fraction of the nth substance listed. Conditions: 101.33 kPa, Liquid, Chromatography, x1 = 0.

Take `CC(C)(C)O` [2-methylpropan-2-ol] + CC[N+]1(C)CCOCC1.N#CN=C=[N-]: the activity coefficient is, setting by setting: (318.15 K) 2.77 ± 0.19; (328.15 K) 2.78 ± 0.19; (338.15 K) 2.8 ± 0.19; (348.15 K) 2.82 ± 0.19; (358.15 K) 2.83 ± 0.19; (368.15 K) 2.85 ± 0.19.
With `Cc1ccc(C)cc1` [1,4-dimethylbenzene] + CC[N+]1(C)CCOCC1.N#CN=C=[N-], the activity coefficient was determined as 13.4 ± 0.9 (318.15 K); 13.7 ± 0.9 (328.15 K); 14 ± 1 (338.15 K); 14.3 ± 1 (348.15 K); 14.6 ± 1 (358.15 K); 14.9 ± 1 (368.15 K).
Turning to `CCCC(C)=O` [pentan-2-one] + CC[N+]1(C)CCOCC1.N#CN=C=[N-], the activity coefficient (318.15 K) was found to be 5.08 ± 0.35; the activity coefficient (328.15 K) was 5.26 ± 0.36; the activity coefficient (338.15 K) came out at 5.45 ± 0.37; the activity coefficient (348.15 K) turned out to be 5.63 ± 0.38; the activity coefficient (358.15 K) worked out at 5.81 ± 0.4; the activity coefficient (368.15 K) came out at 5.98 ± 0.41.
On to `CO` [methanol] + CC[N+]1(C)CCOCC1.N#CN=C=[N-], for which the activity coefficient (318.15 K) was 0.617 ± 0.043; the activity coefficient (328.15 K) worked out at 0.631 ± 0.044; the activity coefficient (338.15 K) was 0.645 ± 0.044; the activity coefficient (348.15 K) worked out at 0.659 ± 0.045; the activity coefficient (358.15 K) stood at 0.672 ± 0.046; the activity coefficient (368.15 K) was 0.684 ± 0.046.
`COC(C)=O` [methyl ethanoate] + CC[N+]1(C)CCOCC1.N#CN=C=[N-]: the activity coefficient is 2.86 ± 0.2 (318.15 K); 3.02 ± 0.21 (328.15 K); 3.18 ± 0.22 (338.15 K); 3.34 ± 0.23 (348.15 K); 3.5 ± 0.24 (358.15 K); 3.65 ± 0.25 (368.15 K).
As to `C1=CCCCC1` [cyclohexene] + CC[N+]1(C)CCOCC1.N#CN=C=[N-], the activity coefficient came out at 50.7 ± 3.5 (318.15 K), 50 ± 3.4 (328.15 K) and 49.4 ± 3.4 (338.15 K).
Take `CCC[N+](=O)[O-]` [1-nitropropane] + CC[N+]1(C)CCOCC1.N#CN=C=[N-]: the activity coefficient (318.15 K) turned out to be 2.29 ± 0.16; the activity coefficient (328.15 K) was found to be 2.39 ± 0.16; the activity coefficient (338.15 K) was determined as 2.49 ± 0.17; the activity coefficient (348.15 K) turned out to be 2.59 ± 0.18; the activity coefficient (358.15 K) turned out to be 2.68 ± 0.18; the activity coefficient (368.15 K) was determined as 2.78 ± 0.19.
With `C=CCCCCCCCC` [1-decene] + CC[N+]1(C)CCOCC1.N#CN=C=[N-], the activity coefficient by setting is: (318.15 K) 1200 ± 83; (328.15 K) 1070 ± 74; (338.15 K) 960 ± 66; (348.15 K) 865 ± 60; (358.15 K) 785 ± 54; (368.15 K) 718 ± 49.
Consider `C#CCCC` [1-pentyne] + CC[N+]1(C)CCOCC1.N#CN=C=[N-], for which the activity coefficient reads like this: (318.15 K) 14.3 ± 1; (328.15 K) 14.8 ± 1; (338.15 K) 15.4 ± 1.1; (348.15 K) 15.9 ± 1.1; (358.15 K) 16.5 ± 1.1; (368.15 K) 17 ± 1.2.
On to `C1CCCCCC1` [cycloheptane] + CC[N+]1(C)CCOCC1.N#CN=C=[N-], for which the activity coefficient runs as follows: (318.15 K) 215 ± 15; (328.15 K) 202 ± 14; (338.15 K) 189 ± 13; (348.15 K) 179 ± 12; (358.15 K) 169 ± 12; (368.15 K) 161 ± 11.
As for `C=COC(C)=O` [vinyl acetate] + CC[N+]1(C)CCOCC1.N#CN=C=[N-], the activity coefficient by setting is: (318.15 K) 4.22 ± 0.29; (328.15 K) 4.41 ± 0.3; (338.15 K) 4.6 ± 0.31; (348.15 K) 4.78 ± 0.33; (358.15 K) 4.97 ± 0.34; (368.15 K) 5.15 ± 0.35.
`C=CCCCC` [hex-1-ene] + CC[N+]1(C)CCOCC1.N#CN=C=[N-]: the activity coefficient runs as follows: (298.15 K) 193 ± 13; (308.15 K) 177 ± 12; (318.15 K) 163 ± 11; (328.15 K) 152 ± 10; (338.15 K) 141 ± 10.
In the case of `CCOCC` [diethyl ether] + CC[N+]1(C)CCOCC1.N#CN=C=[N-], the activity coefficient is, setting by setting: (328.15 K) 28.5 ± 1.9; (338.15 K) 29.3 ± 2; (348.15 K) 30.1 ± 2.1; (358.15 K) 30.8 ± 2.1; (368.15 K) 31.6 ± 2.2.
Regarding `C#CCCCCC` [1-heptyne] + CC[N+]1(C)CCOCC1.N#CN=C=[N-], the activity coefficient reads like this: (318.15 K) 44.9 ± 3.1; (328.15 K) 46.3 ± 3.2; (338.15 K) 47.6 ± 3.3; (348.15 K) 49 ± 3.4; (358.15 K) 50.3 ± 3.4; (368.15 K) 51.6 ± 3.5.
On to `CCC(C)O` (stereo unspecified) [butan-2-ol] + CC[N+]1(C)CCOCC1.N#CN=C=[N-], for which the activity coefficient by setting is: (318.15 K) 2.98 ± 0.2; (328.15 K) 2.94 ± 0.2; (338.15 K) 2.9 ± 0.2; (348.15 K) 2.86 ± 0.19; (358.15 K) 2.83 ± 0.19; (368.15 K) 2.81 ± 0.19.
In the case of `O` [water] + CC[N+]1(C)CCOCC1.N#CN=C=[N-], the activity coefficient is, setting by setting: (318.15 K) 0.324 ± 0.032; (328.15 K) 0.337 ± 0.032; (338.15 K) 0.35 ± 0.032; (348.15 K) 0.364 ± 0.033; (358.15 K) 0.376 ± 0.033; (368.15 K) 0.39 ± 0.034.
Turning to `Cc1ccccc1C` [1,2-dimethylbenzene] + CC[N+]1(C)CCOCC1.N#CN=C=[N-], the activity coefficient reads like this: (318.15 K) 10.8 ± 0.7; (328.15 K) 11.1 ± 0.8; (338.15 K) 11.4 ± 0.8; (348.15 K) 11.7 ± 0.8; (358.15 K) 12 ± 0.8; (368.15 K) 12.4 ± 0.8.
Regarding `CCCOCCC` [dipropyl ether] + CC[N+]1(C)CCOCC1.N#CN=C=[N-], the activity coefficient amounted to 110 ± 8 (328.15 K); 112 ± 8 (338.15 K); 114 ± 8 (348.15 K); 116 ± 8 (358.15 K); 119 ± 8 (368.15 K).
As to `C=CCCCCC` [1-heptene] + CC[N+]1(C)CCOCC1.N#CN=C=[N-], the activity coefficient was determined as 288 ± 20 (318.15 K); 268 ± 18 (328.15 K); 251 ± 17 (338.15 K); 236 ± 16 (348.15 K); 222 ± 15 (358.15 K); 210 ± 14 (368.15 K).
`Cc1cccc(C)c1` [1,3-dimethylbenzene] + CC[N+]1(C)CCOCC1.N#CN=C=[N-]: the activity coefficient reads like this: (318.15 K) 13.8 ± 0.9; (328.15 K) 14.1 ± 1; (338.15 K) 14.4 ± 1; (348.15 K) 14.7 ± 1; (358.15 K) 14.9 ± 1; (368.15 K) 15.2 ± 1.
As to `CC(C)=O` [acetone] + CC[N+]1(C)CCOCC1.N#CN=C=[N-], the activity coefficient was 1.61 ± 0.11 (318.15 K); 1.7 ± 0.11 (328.15 K); 1.8 ± 0.12 (338.15 K); 1.9 ± 0.13 (348.15 K); 1.99 ± 0.14 (358.15 K); 2.09 ± 0.14 (368.15 K).
With `Cc1ccccc1` [toluene] + CC[N+]1(C)CCOCC1.N#CN=C=[N-], the activity coefficient (318.15 K) amounted to 7.87 ± 0.54; the activity coefficient (328.15 K) was determined as 8.1 ± 0.55; the activity coefficient (338.15 K) is 8.33 ± 0.57; the activity coefficient (348.15 K) is 8.56 ± 0.58; the activity coefficient (358.15 K) turned out to be 8.77 ± 0.6; the activity coefficient (368.15 K) amounted to 8.99 ± 0.61.
On to `CCCCCC` [hexane] + CC[N+]1(C)CCOCC1.N#CN=C=[N-], for which the activity coefficient is, setting by setting: (298.15 K) 608 ± 42; (308.15 K) 539 ± 37; (318.15 K) 482 ± 33.
For `C1COCCO1` [1,4-dioxane] + CC[N+]1(C)CCOCC1.N#CN=C=[N-], the activity coefficient was determined as 1.57 ± 0.1 (318.15 K); 1.69 ± 0.11 (328.15 K); 1.82 ± 0.12 (338.15 K); 1.94 ± 0.13 (348.15 K); 2.06 ± 0.14 (358.15 K); 2.19 ± 0.15 (368.15 K).
On to `CCCO` [propan-1-ol] + CC[N+]1(C)CCOCC1.N#CN=C=[N-], for which the activity coefficient reads like this: (318.15 K) 1.85 ± 0.12; (328.15 K) 1.85 ± 0.12; (338.15 K) 1.84 ± 0.12; (348.15 K) 1.84 ± 0.12; (358.15 K) 1.84 ± 0.12; (368.15 K) 1.83 ± 0.12.
